Data reported in patent publication US12077501B2, “Compounds and compositions for intracellular delivery of agents” (ModernaTX, Inc., priority 2017, dated 2024).

What was measured:
[1] = Lipid clearance: % dose remaining in liver of CD-1 mice; format: in vivo; details: intravenous, 0.5 mg/kg, CD-1 mouse, Table 8a
In short: (§1)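 Expression and clearance data were obtained for nanoparticle compositions with various test compounds, run in parallel with an MC3 composition.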

[2] = Particle size and polydispersity index of nanoparticle compositions (Zetasizer Nano ZS); format: physicochemical; details: row marked **: Formulated with lipid:Chol:DOPE:PEG 1 30:38.5:30:1.5
Description: A Zetasizer Nano ZS (Malvem Instruments Ltd, Malvem, Worcestershire, UK) can be used to determine the particle size, the polydispersity index (PDI) and the zeta potential of the nanoparticle compositions in 1×PBS in determining particle size and 15 mM PBS in determining zeta potential.

[3] = Encapsulation efficiency of RNA (QUANT-IT RIBOGREEN RNA assay); format: physicochemical; details: row marked **: Formulated with lipid:Chol:DOPE:PEG 1 30:38.5:30:1.5
In short: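 RiboGreen fluorescence (ex about 480, em about 520 nm) compares nanoparticle samples left intact versus disrupted with 2% Triton X-100 (15 min, 37° C). Samples are first brought to roughly 5 μg/mL in 10 mM Tris-HCl, 1 mM EDTA, pH 7.5; percent free RNA equals the blank-corrected intact/disrupted signal ratio.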

[4] = Purity at start and after storage for 65 h at 25 °C or 37 °C; format: physicochemical
hEPO expression [5] = test: hEPO expression in CD-1 mice compared with MC3; format: in vivo
In short: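 Dosing: 0.5 mpk nanoparticle composition, CD-1 mice. Measured: hEPO expression.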

[6] = Characteristics of nanoparticle compositions formulated with PEG-DMG or PEG 1 over 4 weeks; format: physicochemical
Description: Formulations were prepared according to Table 13 and included an mRNA encoding hEPO and the particle size, polydispersity index and encapsulation efficiency were recorded on day 1 (week 1), day 8 (week 2), day 15 (week 3), and day 22 (week 4), of the study.

[7] = Lipid clearance: % dose remaining, Tables 7c and 8b-8e (species not given); format: in vivo
In short: as §1

hEPO expression [8] = test: hEPO (miR126 + miR142) mRNA expression, Tables 8b-8e; format: in vivo
hEPO expression [9] = test: hEPO expression in Cynomolgus monkeys; format: in vivo; details: 0.05 mg/kg
Description: Nanoparticle compositions of the disclosure, including an mRNA encoding hEPO and comprising a miR binding site, were administered to Cynomolgus monkeys at a dose of 0.05 mg/kg via a 60 min intravenous infusion.

[10] = test system: hepatocytes and Kupffer cells; test: Mouse liver immunohistochemistry (IHC) with GFP mRNA (FIGS. 11A, 11B); format: in vivo; details: LDLR knockout mouse liver, 8h after intravenous administration, 0.5 mpk (FIG. 11B), in contrast to MC3
Excerpt: FIGS. 11A and 11B are a pair of images comparing the results of a mouse liver immunohistochemistry (IHC) using mRNA expressing green fluorescent protein (GFP) after administration of nanoparticle compositions containing Compound 4 and MC3.

luciferase expression = test: Expression of Luc in different organs (liver, lung, spleen, femur), bioluminescence; format: in vivo; details: mice, intravenous, 0.5 mpk, 6 hours
Description: The efficacy of the nanoparticle compositions presented in Tables 1, la, 17-1, 19-1, 20-1 and 21-1 was further evaluated by measuring the expression of modified luciferase in the liver, lung, spleen, and femur upon administration of a given composition. Formulations were administered intravenously to mice (n=3) at a dosage of 0.5 mpk and bioluminescence measured after 6 hours. The standard MC3 formulation and a PBS control were also tested.

rats = test: Tolerability / toxicity in rats (FIGS. 8A, 8B); format: in vivo; details: 2 mg/kg dose
Luc expression = Luc expression in CD-1 mice compared with MC3; format: in vivo; details: ratio to MC3, Table 7a
Excerpt: In contrast, hEPO expression in rats induced by administration of a nanoparticle composition including a compound according to one of formulae (I), (Ia1)-(Ia6), (Ib), (II), (IIa), (III), and (IIIa) was substantially […] than that measured for MC3. […] Tables 7c and 7d show additional protein expressions and clearance data from compositions with various compounds disclosed herein as compared to with MC3. Tables 7e, 7f and 7g show hEPO expression data in CD-1 mice at a dose of 0.5 mpk.

hEPO = hEPO expression in rats after i.v. administration of nanoparticle compositions (FIGS. 8A, 8B); format: in vivo, rat; details: rats (FIGS. 8A and 8B)
Excerpt: PBS (phosphate buffered saline) is used as control. FIG. 8A compares the hEPO concentration after administration of nanoparticle compositions containing Compound 23, Compound 11, KL22, and MC3 at 2 mpk, i.v. administration. […] FIG. 8B illustrates the results of a dose response study using Compound 20, KL22, and MC3 at dose of 0.2, 0.5 and 1 mpk. […] In FIG. 8A, the numbers 1-5 refer to compositions containing the following: 1: Compound 23, 2: Compound 11, 3: KL22; 4: MC3; 5: PBS. In FIG. 8B, the numbers […] refer to compositions containing the following: 1: Compound 20, 0.2 mpk; 2: Compound 20, 0.5 mpk; 3: Compound 20, 1 mpk; 4: KL22, 0.2 mpk; 5: KL22, 0.5 mpk; 6: KL22, 1 mpk; 7: MC3, 0.2 mpk; 8: MC3, 0.5 mpk; 9: MC3, 1 mpk; 10: PBS.

LDL levels = LDL levels in LDLr-/- mice relative to untreated; format: in vivo; details: intravenous, Table 7b
[11] = Week 1, 40:20:38.5:1.5 Lipid:DOPE:Chol:PEG 1
[12] = Week 1, 40:20:38.5:1.5 Lipid:DOPE:Chol:PEG-DMG
[13] = Week 2, 40:20:38.5:1.5 Lipid:DOPE:Chol:PEG 1
[14] = Week 2, 40:20:38.5:1.5 Lipid:DOPE:Chol:PEG-DMG
[15] = Week 3, 40:20:38.5:1.5 Lipid:DOPE:Chol:PEG 1
[16] = Week 3, 40:20:38.5:1.5 Lipid:DOPE:Chol:PEG-DMG
[17] = Week 4, 40:20:38.5:1.5 Lipid:DOPE:Chol:PEG 1
[18] = Week 4, 40:20:38.5:1.5 Lipid:DOPE:Chol:PEG-DMG

SMILES: CCCCCCCCCN(CCCCCCCCC)CCN(CCCCCCCCC)CC(=O)N1CCN(C(=O)CN(CCCCCCCCC)CCCCCCCCC)CC1 [Compound 4, 2-(Dinonylamino)-1-(4-(N-(2-(dinonylamino)ethyl)-N-nonylglycyl)piperazin-1-yl)ethan-1-one]
- % Dose Remaining 24 hr [1]: 60.36%
- PDI ([2]; Table 1e): 0.19
- Size (nm) ([2]; Table 1e): 99.2 nm
- PDI ([2]; Table 1f): 0.21
- Size (nm) ([2]; Table 1f): 111.5 nm
- PDI ([2]; Table 1d): 0.23
- Size (nm) ([2]; Table 1d): 101.5 nm
- EE (%) ([3]; Table 1e): 98.6%
- EE (%) ([3]; Table 1f): 98.8%
- EE (%) ([3]; Table 1d): 99.1%
- Purity % 25° C. no shaking t = 65 h ([4]; after storage for 65 h at 25° C., no shaking): 99%
- Purity % 37° C. shaking t = 65 h ([4]; after storage for 65 h at 37° C., shaking): 99%
- Purity % t = 0 h ([4]; beginning of the study, 25° C.): 98%
- AUC (p/s*h) CD-1 mice 0.5 mpk (hEPO expression [5]; intramuscular, title: 0.01 mg/kg, Table 7f): 366551 p/s*h
- AUC (p/s*h) CD-1 mice 0.5 mpk (hEPO expression [5]; subcutaneous, 0.5 mg/kg, Table 7g): 859874 p/s*h
- EE (%) [6, 11]: 98%
- PDI [6, 11]: 0.22
- Size (nm) [6, 11]: 101.5 nm
- EE (%) [6, 12]: 99%
- PDI [6, 12]: 0.23
- Size (nm) [6, 12]: 79.9 nm
- EE (%) [6, 13]: 97%
- PDI [6, 13]: 0.21
- Size (nm) [6, 13]: 104.1 nm
- EE (%) [6, 14]: 99%
- PDI [6, 14]: 0.21
- Size (nm) [6, 14]: 79.9 nm
- EE (%) [6, 15]: 97%
- PDI [6, 15]: 0.2
- Size (nm) [6, 15]: 100.4 nm
- EE (%) [6, 16]: 99%
- PDI [6, 16]: 0.22
- Size (nm) [6, 16]: 77.3 nm
- EE (%) [6, 17]: 97%
- PDI [6, 17]: 0.2
- Size (nm) [6, 17]: 101.9 nm
- EE (%) [6, 18]: 99%
- PDI [6, 18]: 0.21
- Size (nm) [6, 18]: 73.6 nm
- % Dose Remaining (liver, 24 h) ([7]; Table 8b): 39.23%
- % Dose Remaining (liver, 24 h) ([7]; Table 8c): 37.05%
- % Dose Remaining (liver, 24 h) ([7]; Table 8d): 43.02%
- AUC (hEPO expression [8]; Table 8b): 6.7e+07 pg·h/mL
- AUC (hEPO expression [8]; Table 8c): 8.47e+07 pg·h/mL
- AUC (hEPO expression [8]; Table 8d): 1.83e+09 pg·h/mL
- AUC (mIU/mL*h) (hEPO expression [8]; lipid:Chol:PEG 1 50:47.5:2.5, Table 8e): 2.76E+08 mIU/mL*h
- levels of hEPO expression compared to MC3 (hEPO expression [9]): improved levels of hEPO expressions
- GFP protein expression in liver cell types (IHC) [10]: less protein expression in Kupffer cells

SMILES: CCCCCCCCCCCCCCN(CCCCCCCCCCCCCC)CCN1CCN(CCN(CCCCCCCCC)CCN(CCCCCCCCC)CCCCCCCCC)CC1 [Compound 20, N^1-(2-(4-(2-(Ditetradecylamino)ethyl)piperazin-1-yl)ethyl)-N^1,N^2,N^2-trinonylethane-1,2-diamine]
- total flux, rank among the compositions of Table 3 (luciferase expression): highest total flux

SMILES: CCCCCCCCCCCCN(CCCCCCCCCCCC)CCN(CCCCCCCCCCCC)CCN1CCN(CCN(CCCCCCCCC)CCCCCCCCC)CC1 [Compound 23, N^1-(2-(4-(2-(Dinonylamino)ethyl)piperazin-1-yl)ethyl)-N^1,N^2,N^2-tridodecylethane-1,2-diamine]
- toxicity (rats): toxic
- Lipid/MC3 Luc CD-1 (mice) (Luc expression): several fold higher

SMILES: CCCCCCCCCCCCN(CCCCCCCCCCCC)CCN(CCCCCCCCCCCC)CCN1CCN(CCN(CCCCCCCCCCCC)CCCCCCCCCCCC)CC1 [KL22, N1-[2-(didodecylamino)ethyl]-N1,N4,N4-tridodecyl-1,4-piperazinediethanamine, reference compound]
- toxicity (rats): toxic
- hEPO expression levels in rats (hEPO): do not express hEPO in rats
- LDL levels lipid/untreated LDLr−/− mice 0.5 mpk, LDLr (LDL levels): 0.51
